In patent US20050136079A1, “Cosmetic compositions containing fullerene clusters” (priority 2003, published 2005):

Assay: Antioxidant activity (AOA) by coulometric titration with electrogenerated bromine-based oxidants
Conditions: Coulombs spent for titration of 100 g of analyzed material; sample macerated 1:5 in water or water/alcohol
Procedure: The quantitative assessment of the antioxidant activity of the cosmetic composition containing fullerene clusters was tested utilizing bromine-based oxidants generated electrochemically.
Procedure: • 1. Electrogeneration of bromine-based oxidants and coulonometric tritration were performed with a potentiostate using 1 cm^2 platinum working electrode at a current 5 mA • 2. Bromine oxidant was generated 0.2 M KBr dissolved in 0.1M H2SO4/tartrate buffer solution, which ensure 100% yield of oxidant by current. The final point was determined amperometrically with two polarized platinum electrodes at E=20 mV. • 3. Samples for analysis in water or water/alcohol media were obtained by maceration of the mixture of a cosmetic containing the active ingredient listed in the following table and this media taken in proporation 1:5 by weight. • 4. Antioxidant activity (AOA) is expressed as amount of Coulombs spent for titration of 100 g of the analyzed starting cosmetic substance.
Bromine compounds including Br2, Br3^− and active bromo-radicals are electrochemically generated and adsorbed at the surface of the platinum electrode and then these radicals act as oxidating agents in redox reactions, reactions of electrophilic substitution and addition to double bonds e.g. in the fullerene molecules in the fullerene cluster of cosmetic composition. […]

## CCCCC/C=C\C/C=C\CCCCCCCC(=O)O [Linoleic Acid without C60, Linoleic Acid]
  AOA: 4.8 kCb/100 g
